Data set [1] in a line: Phase I metabolic stability in mouse liver microsomes (MLM) with NADPH-generating system. It is filed as in vitro ADME. Conditions: for in vitro half-life (t1/2), phase I metabolism / half-life at 1 µM: NADPH-generating system; for half-life at 1 µM: pH 7.4, MLM, read-out: in vitro half-life (t1/2), phase I metabolism.
Data set [2] in a line: Phase II glucuronidation stability in MLM (+UDPGA). It is filed as in vitro ADME, mouse. Conditions: 1 μM. As for the experimental part:
Phase I metabolic stability assays on UniPR compounds were carried out in the presence of MLM (final protein concentration: 1 mg/mL) following published procedures. MLM were also employed in phase II glucuronidation assays employing UDPGA as activating co-factor.
(§1) S.1 In vitro phase I liver metabolism in MLM
(§2) In phase I metabolic stability assays, samples were prepared in 100 mM phosphate buffered saline (PBS), pH 7.4, containing a NADPH-generating system (5 mM MgCl2, 10 mM glucose-6-phosphate, 2 mM NADP+, 1.5 U/mL of glucose-6-phosphate dehydrogenase) and 1 mg/mL mouse liver […]
solutions in DMSO were added to start the reaction. Final DMSO percentage in samples was kept at 1%. At fixed time points (t = 0, 15, 30, 45, 60 min), single aliquots of reaction mixture were withdrawn, processed with two vol. of ACN containing 100 nM UniPR126, centrifuged (16000 g, 10 min, 4 °C) and the supernatant was directly injected in the HPLC-ESI-MS/MS system. […]
(§3) Within-run accuracy and precision were checked employing QC samples representative of the whole calibration range (HQC = 800 nmol/l; MQC = 400 nmol/l; LQC = 5 nmol/l) with n = 3 replicates at each QC concentration level. […] The acceptance criteria for accuracy were to get back-calculated concentrations ± 15% of the nominal ones, except for the LLOQ, which had to be ± 20%. The acceptance criteria for precision, expressed as relative standard

Data set [3] can be described thus: Phase II sulfonation stability in mouse liver S9 fraction (+PAPS). Format: in vitro ADME. The conditions noted are these: mouse liver S9, 1 μM. As for the experimental part: (§4) Phase II sulfonation assays were carried out in the presence of HLS9 or MLS9 fractions, as previously reported. The co-factor PAPS was incubated together with MgCl2, DTT, and UniPR compounds. The detailed experimental protocols for in vitro phase I and II metabolic stability assays are reported in Sections S.1–S.3 of the Supplementary Material. […] A 100 µL aliquot of the reaction mixture was extracted at the beginning of the experiment (t = 0) and at t = 180 min and processed as for the metabolic stability samples.
as §1, §2
solutions in DMSO were added to start the reaction. Final DMSO percentage in samples was kept at 1%. […]
as §3

Data set [4] is described as follows: Phase II sulfonation stability in human liver S9 fraction (+PAPS). Format: in vitro ADME. Conditions: pH 7.4, human liver S9, 1 μM, read-out: in vitro t1/2, sulfonation. As for the experimental part: as §4
In vitro half-life (t1/2) in MLM and MLS9 fraction was calculated from the slope (k, Equation (1)) of the linear regression model obtained by fitting the log percentage UniPR compound remaining vs. time. in vitro t1/2 = −0.693/k (1) […]
S.1 In vitro phase I liver metabolism in MLM […]
as §3

A short description of data set [5]: In vivo pharmacokinetics in mice after single oral dose, plasma levels by HPLC-MS/MS. Conditions: 30 mg/kg p.o.; for AUC(0-t): non-compartmental analysis. As for the experimental part: Male mice (breed: C57BL/6J) were supplied by Charles River Labs, Milan, Italy. Mice were submitted to 12 h light-dark cycles under standard temperature and humidity conditions, with free access to water and chow. All experimental procedures were carried out following the European Community Council Directive 2010/63/UE, Italian regulations (DL 26/2014), and the ethical committee guidelines for animal research. […] Blood aliquots were withdrawn by tail puncture into heparinized tubes, centrifuged to collect plasma (2000× g, 10 min, 4 °C), and stored at −80 °C until analysis by HPLC-ESI-MS/MS. Details on the employed bioanalytical method and HPLC-ESI-MS/MS analytical conditions are given in Section S.4 of the Supplementary Material.
Microsoft Excel 365 (Microsoft Corp., Redmond, WA, USA) was employed for data analysis. GraphPad Prism v. 6.01 (GraphPad Software Inc., La Jolla, CA, USA) was employed for plotting graphs. The freeware software PCModFit V.6.7 (Add-on for Microsoft Excel) was employed for AUC calculations by non-compartmental analysis (NCA). […]
Calibration standards (CS, concentration range: 1000-2 nmol/L) were prepared by spiking blank […]
= 1%). Specificity of the method was checked comparing HPLC-MS/MS chromatograms of blank […]
Within-run accuracy and precision were checked employing QC samples representative of the whole calibration range (HQC = 800 nmol/l; MQC = 400 nmol/l; LQC = 5 nmol/l) with n = 3 replicates at each QC concentration level. Between-run accuracy and precision were checked employing QC samples at n=3 concentration levels in n = 3 analytical runs over three days. The acceptance criteria for accuracy were to get back-calculated concentrations ± 15% of the nominal ones, except for the LLOQ, which had to be ± 20%. The acceptance criteria for precision, expressed as relative standard

The conditions of data set [6]: mice, cited from earlier work.
For data set [7] the following is noted: n-octanol/buffer pH 7.4, cited from earlier work.
The conditions of data set [8]: cited from earlier work.
For data set [9] the following is noted: 24 h incubation at 37 °C; cited from earlier work.
The conditions of data set [10]: cited from earlier work. The source holds these as a separate data set.
In another data set the target is EphA2-Fc (Mus musculus, UniProt Q03145). The data set is described as follows: Surface plasmon resonance (SPR) binding to sensorchip-immobilized EphA2-Fc. As to the method:
SPR measurements were performed on a BIAcore X100 instrument (GE-Healthcare, Milwaukee, WI, USA), using research-grade CM4 carboxyl-methyl-dextran-coated sensorchips (GE-Healthcare). SPR was exploited to measure changes in refractive index caused by the binding of UniPR500 to surface-immobilized EphA2. […] Binding parameters were calculated by the non-linear curve fitting software package BIA evaluation 3.2 using a single site model with correction for mass transfer. The dissociation constant (Kd) was either derived from the dissociation rate (koff)/association rate (kon) ratio (kinetics) or by steady-state analysis (being fitted with the proper form of Scatchard’s equation for the plot of the bound RU at equilibrium vs. the ligand concentration in solution).

Data set [11] is described as follows: Lipophilicity, distribution coefficient n-octanol/buffer pH 7.4. Format: physicochemical.
On the set-up of data set [12]: method as in PMID 31891876, PMID 32927068. Conditions: reference substrates; cited from earlier work.
Setting [13] is: male, C57BL/6J, mouse, plasma, po.

In brackets after ≈: the same amount, converted by molar mass. Several values for one entry are separate records, joined by “and”; a condition that tells them apart may be missing. Identical values can stand only once. Like-named read-outs stand apart in the source and are kept apart here.

EphA2-Fc, sequence (Q03145 26-538): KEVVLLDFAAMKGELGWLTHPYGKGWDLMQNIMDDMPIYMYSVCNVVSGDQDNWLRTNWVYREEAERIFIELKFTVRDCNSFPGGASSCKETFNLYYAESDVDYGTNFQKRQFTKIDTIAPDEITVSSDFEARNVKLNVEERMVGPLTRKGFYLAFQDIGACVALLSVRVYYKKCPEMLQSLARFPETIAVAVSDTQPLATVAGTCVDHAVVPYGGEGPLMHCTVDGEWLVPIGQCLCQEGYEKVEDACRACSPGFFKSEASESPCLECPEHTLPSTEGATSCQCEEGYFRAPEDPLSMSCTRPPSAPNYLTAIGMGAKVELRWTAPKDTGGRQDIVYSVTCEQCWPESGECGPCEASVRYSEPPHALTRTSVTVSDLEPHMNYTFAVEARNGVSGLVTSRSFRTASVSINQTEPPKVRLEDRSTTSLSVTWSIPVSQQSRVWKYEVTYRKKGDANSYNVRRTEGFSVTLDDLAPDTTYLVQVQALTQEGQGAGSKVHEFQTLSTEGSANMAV

`C[C@H](CCC(=O)N[C@H](CC(=O)O)Cc1c[nH]c2ccccc12)[C@H]1CC[C@H]2[C@@H]3CC[C@@H]4C[C@H](O)CC[C@]4(C)[C@H]3CC[C@]12C` [UniPR129, N-(3α-hydroxy-5β-cholan-24-oyl)-L-β-homotryptophan]: the “change in concentration in the absence of the NADPH-generating system” value in data set [1] (MLM control without NADPH-generating system) was “No decrease”. Also, in data set [1] (MLM, 1 μM), the “in vitro half-life (t1/2), phase I metabolism” value is reported as 17 min. Further, the “classification of in vitro phase I intrinsic clearance” value in [1] (classification bands of ref 19) is listed as “high clearance compound”. Besides, the half-life at 1 µM in [1] (mouse, liver microsomes, 1 μM) is 16.8 min; in data set [4] it was 61.1 ± 4.3 min. For the same molecule, the microsomal CLint at 1 µM in data set [1] (mouse, liver microsomes, pH 7.4, MLM, 1 μM, estimate from t1/2, read-out: phase I intrinsic clearance (CL'int)) was 41.4 µL/min/mg. Besides, the “percentage of intact compound at t = 60 min, glucuronidation” value in [2] turned out to be 85.7 ± 2.7%. For the same molecule, the “percentage remaining at t = 60 min, sulfonation” value in data set [3] is given as 86.2 ± 5.3%. The exposure AUC(0-t) in data set [5] (setting [13]) was 0.0406 µM·h. Moreover, in [6] (30 mg/kg oral dose), the “plasma levels after oral administration” value is “low nanomolar range”. The Tmax in [6] (30 mg/kg p.o.) is 60 min. Moreover, the Cmax in data set [6] (30 mg/kg p.o., read-out: Cmax in plasma) was 13.6 ± 1.2 nM. Besides, the entries for the “Log Doct,7.4” value in data set [7] and in [7] (evaluated in a previous paper) were 4.90 ± 0.15 and 4.90, respectively. The figures for the kinetic solubility in data set [8] (PBS buffer pH 7.4) and in data set [8] (previously measured) were 18.3 ± 2.4 µg/mL (≈ 31.7 µM) and 18 µg/mL (≈ 31.2 µM), respectively. Moreover, the “percentage recovered in mouse plasma” value in data set [9] is listed as 98.3 ± 9.5%. For the same molecule, in data set [10], the “plasma protein binding (%bound)” value is 98%.
As to `C[C@H](CCC(=O)N[C@H](CC(=O)O)Cc1c[nH]c2ccccc12)[C@H]1CC[C@H]2[C@@H]3CCC4CC(=NO)CC[C@]4(C)[C@H]3CC[C@]12C` (stereo partly drawn) [UniPR500, N-(3-hydroxyimino-cholan-24-oyl)-L-β-homotryptophan], the “concentration at which saturation binding is reached” value at EphA2-Fc was “around 25 μM”. In data set [1] (MLM, 1 μM), the “in vitro half-life (t1/2), phase I metabolism” value came to 60 min. Besides, the half-life at 1 µM in [1] (mouse, liver microsomes, 1 μM) amounted to 60.4 min. The “percentage of intact compound at t = 60 min, glucuronidation” value in data set [2] worked out at 79.5 ± 2.9%. In addition, in [3], the “percentage remaining at t = 60 min, sulfonation” value is reported as 81.0 ± 4.0%. Also, the half-life at 1 µM in [4] worked out at 58.6 ± 6.1 min. Besides, the “fold increase of AUC (0–6 h) with respect to UniPR129” value in [5] amounted to 43 fold. Moreover, in [5] (setting [13]), the Tmax was 30 min and the AUC(0-t) is 1.75 µM·h. Further, the Cmax in [5] (male, C57BL/6J, mouse, plasma, po, mean ± S.E.M., n = 4, read-out: maximal plasma concentration (Cmax)) was 609 ± 102 nM. Further, the concentration at 1 h in data set [5] (male, C57BL/6J, mouse, plasma, po, mean ± S.E.M., read-out: plasma concentration at 1 h post-dose) is 344 ± 29 nM. Moreover, the concentration at 6 h in [5] (male, C57BL/6J, mouse, plasma, po, mean ± S.E.M., read-out: plasma concentration at 6 h post-dose) came out at 237 ± 24 nM. In addition, the “decrease of Log Doct,7.4 with respect to UniPR129” value in [11] is “approximately 0.7 log unit”. The “Log Doct,7.4” value in data set [7] (evaluated in a previous paper) was 4.23 ± 0.11 and 4.23. For the same molecule, in [8] (previously measured), the kinetic solubility was 30.6 ± 2.6 µg/mL and 30 µg/mL.
Regarding `O=C(O)Cc1ccccc1Nc1c(Cl)cccc1Cl` [diclofenac], in [12], the “t1/2 of known phase I CYP substrates” value is given as ~6 min.

Values taken from article PMC8779995, “Metabolic Soft Spot and Pharmacokinetics: Functionalization of C-3 Position of an Eph–Ephrin Antagonist Featuring a Bile Acid Core as an Effective Strategy to Obtain Oral Bioavailability in Mice” (Pharmaceuticals, 2021).
